The text below walks through data of US20120009152A1, “NITRIC OXIDE DONORS FOR TREATMENT OF DISEASE AND INJURY” (priority 2002, published 2012).

Holding throughout (type): in vivo, rat
In assay [1] the test system is BrdU positive cells in the subventricular zone. Nature of the assay: BrdU positive cells in ipsilateral subventricular zone, combination study. The note with it: treatment 1 day after MCAo; NN 0.4 mg/kg IP, hMSCs 1×10^6 cells iv; PBS control 29.8±8.8. Here is the method: Male Wistar rats (n=32) were subjected to middle cerebral artery occlusion (MCAo) and were randomized with 8 rats in four treatment groups, with treatment initiated 1 day after stroke. Groups included: 1) phosphate buffered saline (PBS); 2) subtherapeutic DETA-NONOate (NN) at a dose of 0.4 mg/kg (IP); 3) subtherapeutic hMSCs (1×10^6 cells-iv); and 4) combination subtherapeutic NN and hMSCs. Functional outcome measurements consisted of a Neurologic Severity Scale (18 point scale) (NSS) and the Adhesive Removal Test performed prior to stroke, immediately before treatment and at 7 and 14 days after treatment. […] However, there was an overall hMSC effect on NSS at 14 days.
BrdU (50 mg/kg-ip) was injected daily for 14 days after treatment in all groups. BrdU is a thymidine analog that labels newly formed DNA and thereby identifies newly formed cells. […] BrdU found in the cytoplasm of macrophage-like cells were not counted. […] The percentage of BrdU reactive cells that express NeuN and GFAP proteins was approximately, 3%, 3% and 6%, respectively.

The subject of assay [2] is BrdU-immunoreactive cells in the subventricular zone and dentate gyrus. Put plainly: BrdU cell proliferation in subventricular zone and dentate gyrus after embolic MCA occlusion. Conditions: 28 days. On the procedure:
Male Wistar rats weighing 320 to 380 g were used in the present study. The middle cerebral artery (MCA) was occluded by placement of an embolus at the origin of the MCA. […] Ischemic rats (n=9) were treated with the same volume of tap water as a control group. Functional tests were performed and body weight was measured before ischemia and at 4, 7, 14, 21, and 28 days after onset of MCA occlusion. All rats were killed 28 days after MCA occlusion. […] These rats were killed 1 hour after the last treatment for measurements of brain levels of cGMP. […] Reverse transcription (RT)-polymerase chain reaction (PCR) was performed to detect PDE5 in brain tissue. Bromodeoxyuridine (BrdU) was used to measure cell proliferation. Animals received daily intraperitoneal injections of BrdU (50 mg/kg; Sigma) on the day of stroke and subsequently for 14 consecutive days. Cell proliferation in the subventricular zone and dentate gyrus was measured in rats killed at 28 days (in experimental protocol 1, all 4 groups) after ischemia. […] Sections were incubated with a primary antibody to BrdU (1:100) at room temperature for 1 hour and then incubated with biotinylated secondary antibody (1:200, Vector) for 1 hour. Reaction product was detected with the use of 3′3′-diaminobenzidine-tetrahydrochloride (DAB; Sigma), For ′III-tubulin (TuJ1) immunostaining, which identifies immature neurons, 12 coronal sections were incubated with the antibody against TuJ1 (1:1000) at 4° C. overnight and were then incubated with a biotinylated horse anti-mouse immunoglobulin antibody at room temperature for 30 minutes. Double immunofluorescent staining for BrdU and TuJ1 as performed to determine whether BrdU-immunoreactive cells express neuronal phenotype on the coronal sections. Measurements of BrdU-immunoreactive cells were performed on paraffin-embedded 6-μm-thick sections. 11 BrdU-immunostained sections were digitized with the use of a 40 objective (Olympus BX40) via the MCID computer imaging analysis system (Imaging Research). BrdU-immunoreactive nuclei were counted on a computer monitor to improve visualization and in 1 focal plane to avoid oversampling. All BrdU-immunoreactive-positive nuclei were counted in both the ipsilateral and contralateral walls of the lateral ventricle of the subventricular zone and in the dentate gyrus. […] For the dentate gyrus, every 50th coronal section was selected from each rat for a total of 8 sections between anteroposterior 5.86 mm and anteroposterior 2.96 mm of the granule cell layer. BrdU-immunoreactive nuclei in the subventricular zone and in the dentate gyrus are presented as the number of the cells per square millimeter (mean SE). […] Numbers of TuJ1-immunoreactive cells were counted in the subventricular one and striatum, and data are presented as the number of TuJ1-immunoreactive cells per section (mean SE).

Assay [3] deals with rats subjected to embolic middle cerebral artery occlusion. Put plainly: Adhesive removal test after embolic MCA occlusion. Here is the method: Male Wistar rats weighing 320 to 380 g were used in the present study. The middle cerebral artery (MCA) was occluded by placement of an embolus at the origin of the MCA.
Ischemic rats (n=9) were treated with the same volume of tap water as a control group. Functional tests were performed and body weight was measured before ischemia and at 4, 7, 14, 21, and 28 days after onset of MCA occlusion. All rats were killed 28 days after MCA occlusion. […] These rats were killed 1 hour after the last treatment for measurements of brain levels of cGMP. […] Experiments were also performed to examine brain PDE5, nonischemic rats and ischemic rats were killed at 2, 4, 24, 48, and 168 hours after the onset of ischemia (n=3 for each time point). Reverse transcription (RT)-polymerase chain reaction (PCR) was performed to detect PDE5 in brain tissue.
An adhesive removal test was used to measure somatosensory deficits and was performed before MCA occlusion and at 4, 7, 14, 21 and 28 days after MCA occlusion.

Setting [4] is: Sildenafil 2 mg/kg from 2 h after MCA occlusion.
Setting [5] is: Sildenafil 2 mg/kg from 24 h after MCA occlusion.
Where [6] appears, read: Sildenafil 5 mg/kg from 2 h after MCA occlusion.

`NCCN(CCN)/[N+]([O-])=N/O` [DETANONOate, (Z)-1-[N-(2-aminoethyl)-N-(2-ammonioethyl)aminio]diazen-1-ium-1,2-diolate]: the “BrdU positive cells in the ipsilateral hemisphere subventricular zone” value in assay [1] is given as 43.6±10.0 /section.

`CCCc1nn(C)c2c(=O)[nH]c(-c3cc(S(=O)(=O)N4CCN(C)CC4)ccc3OCC)nc12` [Sildenafil]: the “Density of newborn cells, Dentate Gyrus Contralateral” value in assay [2] (setting [4]) is recorded as 55 ± 2.10 cells per mm^2; in assay [2] (setting [5]) it was 56 ± 4.76 cells per mm^2; in assay [2] (setting [6]) it was 58 ± 5.38 cells per mm^2. Further, the results for the “Density of newborn cells, Dentate Gyrus Ipsilateral” value in assay [2] (setting [4]), in assay [2] (setting [5]) and in assay [2] (setting [6]) were 55 ± 3.99 cells per mm^2, 57 ± 4.21 cells per mm^2 and 59 ± 5.26 cells per mm^2, respectively. Moreover, the “Density of newborn cells, Subventricular Zone Contralateral” value came out at 296 ± 19.74 cells per mm^2 in assay [2] (setting [4]), 295 ± 24.54 cells per mm^2 in assay [2] (setting [5]) and 312 ± 23.79 cells per mm^2 in assay [2] (setting [6]). For the same compound, the figures for the “Density of newborn cells, Subventricular Zone Ipsilateral” value in assay [2] (setting [5]), in assay [2] (Sildenafil 2 mg/kg oral daily 7 days from 2 h after MCA occlusion) and in assay [2] (setting [6]) were 374 ± 16.07 cells per mm^2, 383 ± 23.44 cells per mm^2 and 437 ± 32.97 cells per mm^2, respectively. For the same compound, the “Adhesive Removal Test” value in assay [3] (Sildenafil 2 mg/kg, 2 h, 4 d) came out at 96.4 ± 9.8 s; in assay [3] (Sildenafil 2 mg/kg, 2 h, 7 d), 41.9 ± 8.4 s; in assay [3] (Sildenafil 2 mg/kg, 2 h, 14 d), 27.6 ± 3.9 s; in assay [3] (Sildenafil 2 mg/kg, 2 h, 21 d), 23.6 ± 5.1 s; in assay [3] (Sildenafil 2 mg/kg, 2 h, 28 d), 15.9 ± 3.8 s; in assay [3] (Sildenafil 2 mg/kg, 2 h group, Before Ischemia (baseline)) it was 7.0 ± 0.1 s. Moreover, the “Adhesive Removal Test” value stood at 102 ± 6.6 s in assay [3] (Sildenafil 2 mg/kg, 24 h, 4 d); 49.4 ± 4.5 s in assay [3] (Sildenafil 2 mg/kg, 24 h, 7 d); 14.1 ± 1.3 s in assay [3] (Sildenafil 2 mg/kg, 24 h, 14 d); 14.0 ± 1.0 s in assay [3] (Sildenafil 2 mg/kg, 24 h, 21 d); 10.7 ± 0.9 s in assay [3] (Sildenafil 2 mg/kg, 24 h, 28 d); 6.8 ± 0.3 s in assay [3] (Sildenafil 2 mg/kg, 24 h group, Before Ischemia (baseline)). The “Adhesive Removal Test” value in assay [3] (Sildenafil 5 mg/kg, 2 h, 4 d) was 100.7 ± 9.2 s; in assay [3] (Sildenafil 5 mg/kg, 2 h, 7 d), 70.7 ± 10.8 s; in assay [3] (Sildenafil 5 mg/kg, 2 h, 14 d) it was 38.6 ± 7.9 s; in assay [3] (Sildenafil 5 mg/kg, 2 h, 21 d), 26.0 ± 6.6 s; in assay [3] (Sildenafil 5 mg/kg, 2 h, 28 d), 14.8 ± 3.9 s; in assay [3] (Sildenafil 5 mg/kg, 2 h group, Before Ischemia (baseline)) it was 16.7 ± 0.4 s.
